Converted amounts (≈) assume the structure as drawn. Read-outs that look alike come from different tables or passages of the source.
Tests used:
[1] = Aqueous solubility determination (shake flask, UV); type: physicochemical; settings: thermodynamic from solid, phosphate buffer pH 7.0, 48 h stirring, filtered, UV, read-out: Solub.
Experimental: One of the expected effects of introducing nitrogen substitutions on combretastatin and isocombretastatin analogues, is an increase in aqueous solubility. Solubility was spectrophotometrically determined in phosphate buffer at pH 7. UV absorbance of soluble compounds was measured after shaking and microfiltration. […] In addition, aqueous solubilities of the corresponding ammonium salts are over 1 mg/mL.
This great improvement is probably due to the symmetry reduction, combined with an increased polarity for 2g.
Compounds were stirred in a solution of phosphate buffer at pH 7.0 (1–2 mg of compound in 300 µL of buffer) during 48 h. After that, the samples were filtered over a […] filter to discard the insoluble residues. In order to determine the maximum wavelength of absorbance for each compound, a scan between 270 and 400 nm was performed. Once the wavelength was selected, a calibration line was performed and the concentration of the stirred and filtered samples was measured.

[2] = test system: HeLa cervix epithelioid carcinoma; assay: MTT cell antiproliferative assay, HeLa; type: cell-based; settings: Homo sapiens, 72 h
Experimental: (§1) The in vitro antiproliferative activity of the synthesized compounds was evaluated by a colorimetric reaction, using the MTT reagent. They were tested against three different human tumor cell lines: HeLa cervix epithelioid carcinoma, HT-29 colon adenocarcinoma, and MCF-7 breast adenocarcinoma. […] Moving the alkylamino substituent from a para to a meta position with respect to the bridge results in potency reduction, except for the phenstatin analogue 1f. However, the introduction of a nitrogen atom to form 2-dimethylaminopyridine derivatives entails a loss of activity, both for phenstatin analogues (1b, 2b), while for isocombretastatins, it only involves a 2–3 times potency decrease (3b). For combretastatins, it implies an improvement in the cytotoxicity values down to tenths of nanomolar (8b). […] On the other hand, the best 2-dimethylaminopyridine was combretastatin 8b. All ammonium salts derivatives were not cytotoxic at micromolar concentrations.
(§2) HeLa (human cervical carcinoma) and MCF-7 (human breast carcinoma) cell lines were cultured in Dulbecco’s Modified Eagles Medium (DMEM) supplemented with 2 mM L-glutamine (Lonza-Cambrex, Karlskoga, Sweden), 10% (v/v) heat inactivated fetal bovine serum (HIFBS) (Lonza-Cambrex) and 100 μg/mL streptomycin-100 IU/mL penicillin (Lonza-Cambrex) at 37 °C in humidified 95% air and 5% CO2. HT-29 (human colon carcinoma) cells were cultured at 37 °C in complete RPMI 1640 medium containing 2 mM L-glutamine, 10% (v/v) HIFBS and 100 μg/mL streptomycin-100 IU/mL penicillin in humidified 95% air and 5% CO2 atmosphere.
(§3) The effect of the different compounds on the proliferation of human cell lines was determined by using the MTT (3-[4,5-dimethylthiazol-2-yl]-2,5-diphenyltetrazolium bromide) reagent (MTT Thiazolyl Blue Tetrazolium Bromide, Sigma-Aldrich, St. Louis, MO, USA) dissolved in PBS 5 mg/mL. Cell viability was evaluated seeding 100 µL of cells in exponential growth phase with appropriate cell line concentration (1.5 × 10^4 HeLa and MCF-7 cells/mL and 3 × 10^4 HT-29 cells/mL) in complete medium in 96-well plates at 37 °C and 5% CO2. After 24 h incubation to allow cells to attach to the plates the ligands were added at different concentrations from 10^−5 to 10^−9 M. The effect on the proliferation was evaluated 72 h post-treatment by adding the MTT reagent (10 µL/well) to a final concentration of 0.5 mg/mL and the plate was further incubated for another 3 h. After this period, the supernatant was removed, the MTT violet crystals formed on the bottom of each well were dissolved in DMSO (100 µL/well) and subsequently, the absorbance of the color complex was read at 570 nm using a multi-well plate reader. Compounds were dissolved in dimethyl sulfoxide (DMSO) and the final solvent concentrations never exceeded 0.5% (v/v). The control wells included treated cells with 0.5% (v/v) DMSO and the positive control. Measurements were performed in triplicate, and each experiment was repeated three times. […] Nonlinear curves fitting the experimental data were carried out for each compound.

[3] = test system: Bovine brain microtubule protein (MTP); assay: Tubulin polymerization inhibition assay (turbidimetry); type: biochemical; settings: 1.5 mg/mL MTP; IC50 calculated only if more than 50% inhibition at 20 µM; read-out: TPI IC50
Experimental: Bovine brain microtubule protein (MTP) was isolated as previously described. Briefly, it was purified according to the modified Shelanski method by two cycles of temperature-dependent assembly/disassembly.
Tubulin polymerization was monitored using a Helios α spectrophotometer by measuring the increase in turbidity at 450 nm, caused by a shift from 4 °C to 37 °C, which allows the in vitro MTP self-disassembly and assembly respectively. […] Firstly, ligands at 20 µM concentration, were incubated with 1.5 mg/mL MTP at 20 °C for 30 min and subsequently cooled on ice for 10 min. Then, the experiment starts at 4 °C to establish the initial baseline. The assembly process was initiated by shifting of the temperature to 37 °C and the turbidity produced can be measured by an absorbance increase. After reaching a stable plateau, the temperature was switched back to 4 °C to return to the initial absorption values. The difference in amplitude between the stable plateau and the initial baseline of the curves was taken as the degree of tubulin polymerization for each experiment. […] All the measurements were carried out in at least two independent experiments using MTP from different isolation.

[4] = test system: MCF-7 breast adenocarcinoma; assay: MTT cell antiproliferative assay, MCF-7; type: cell-based; settings: Homo sapiens, MCF7, 72 h
Experimental: as §1, §2, §3

[5] = test system: HeLa, HT-29 and MCF-7 human tumor cell lines; assay: Antiproliferative activity over the three human tumor cell lines (MTT); type: cell-based; settings: Homo sapiens, read-out: Cytotoxicity range (range of antiproliferative IC50 values)
Experimental: as §1
The antiproliferative activity of the compounds against three human tumor cell lines of different origins (i.e., HeLa cervix epithelioid carcinoma, HT-29 colon adenocarcinoma and MCF-7 breast adenocarcinoma) was evaluated by the MTT method. […] This high success rate is the result of a combination of favorable scaffolds and substituents, and it is similar to those of previous reports on related series. […] We have previously observed the same trend for related compounds acting at the colchicine site of tubulin [10, 23]. For this pyridine series, we observed a different potency trend when we compare the 4-amino-3-pyridine and the 3-amino-4-pyridine derivatives. […] This different behavior is probably a reflection of their different shape, combined with the different geometries imposed by different bridges. We have previously shown that the potency ordering isocombretastatins similar to oximes higher than benzophenones could be explained by the higher conjugation of the ketones with the aromatic rings, which imposes a more planar disposition than those required for high affinity colchicine site binding. For the 3-amino-4-pyridine series, more planar structures are required in order to avoid the bumping of the amino substituents with tubulin out the plane of the aromatic ring, an effect which we have previously shown to impact the potency of 3-substituted indolecombretastatins and dimethylaminophenyl phenstatins. This different geometrical disposition of the amino substituents, and the different adaptability of their corresponding pockets in the two series, can also account for the preference of bulkier substituents at position 3, such as the pyrrolidine rather than the smaller dimethylamino. […] The opposite is observed for the 4-dimethylaminophenyl phenstatins 1a and 1b. […] The remarkable levels of solubility achieved for the quaternary ammonium salts came unfortunately at the expenses of biological activity.
The effect of the different compounds on the proliferation of human cell lines was determined by using the MTT (3-[4,5-dimethylthiazol-2-yl]-2,5-diphenyltetrazolium bromide) reagent (MTT Thiazolyl Blue Tetrazolium Bromide, Sigma-Aldrich, St. Louis, MO, USA) dissolved in PBS 5 mg/mL. Cell viability was evaluated seeding 100 µL of cells in exponential growth phase with appropriate cell line concentration (1.5 × 10^4 HeLa and MCF-7 cells/mL and 3 × 10^4 HT-29 cells/mL) in complete medium in 96-well plates at 37 °C and 5% CO2. After 24 h incubation to allow cells to attach to the plates the ligands were added at different concentrations from 10^−5 to 10^−9 M. The effect on the proliferation was evaluated 72 h post-treatment by adding the MTT reagent (10 µL/well) to a final concentration of 0.5 mg/mL and the plate was further incubated for another 3 h. […]

[6] = test system: HT-29 colon adenocarcinoma; assay: MTT cell antiproliferative assay, HT-29 (without or with verapamil); type: cell-based, human; settings: for IC50: Homo sapiens, HT-29, MTT, 72 h
Experimental: as §1
As observed in Table 1, there are no significant changes in the IC50 values for most compounds, except for combretastatins 8a and 8i.
Acquired resistance to antitumor drugs is one of the more important problems of chemotherapy, also affecting tubulin-targeting drugs. In order to ascertain the impact of multidrug resistance phenotypes on the action of the compounds, we have measured the cell proliferation inhibitory activity of HT-29 cells in the presence of verapamil, a known P-glycoprotein 1/multidrug resistance protein 1 (MDR1) inhibitor at a concentration of 10 µM, not affecting cell proliferation. […] Except for the combretastatin analogues 8a and 8i, the affected drugs are all pyridine drugs.
as §2, §3

[7] = phosphate buffer, pH 7, aqueous buffer
[8] = range over the cell lines, Table S1

Row | SMILES | solubility at 48 h [1, 7] [µg/mL] | IC50 [2] [nM] | IC50 [3] [nM] | IC50 [4] [nM] | IC50 [6] [nM] | improvement of HT-29 IC50 after verapamil treatment ([6]; 10 µM verapamil) [fold] | IC50 [5, 8] [nM] | solubility at 48 h ([1]; aqueous buffer) [µg/mL] | IC50 [5] [nM] | IC50 ([5]; range over the cell lines, Table S1, heading: Cytotoxicity range) [nM]
1 | C=C(c1ccc(N2CCCC2)nc1)c1cc(OC)c(OC)c(OC)c1 [Compound 3c, 2-(Pyrrolidin-1-yl)-5-(1-(3,4,5-trimethoxyphenyl)vinyl)pyridine] | – | 523 | > 20000 | – | 383 | – | 140 to 523 | – | – | –
2 | COc1cc(C=Cc2ccc(N3CCCC3)cc2)cc(OC)c1OC [Compound 8i, 1-(4-(3,4,5-Trimethoxystyryl)phenyl)pyrrolidine] | – | 243 | – | 140 | 430 | > 2 | – | – | – | –
3 | C=C(c1ccc([N+](C)(C)C)cc1)c1cc(OC)c(OC)c(OC)c1.[I-] [Compound 7a, N,N,N-trimethyl-4-(1-(3,4,5-trimethoxyphenyl)vinyl)benzenaminium iodide] | – | > 1000 | > 20000 | > 1000 | – | – | – | 2500 | > 1000 | –
4 | COc1cc(C=Cc2ccnc(N3CCCC3)c2)cc(OC)c1OC [Compound 8h, 2-(Pyrrolidin-1-yl)-4-(3,4,5-trimethoxystyryl)pyridine] | 65 (≈ 191 µM) | > 1000 | > 20000 | > 1000 | – | – | > 1000 | – | – | –
5 | COc1cc(C(=NO)c2cccc(N(C)C)c2)cc(OC)c1OC [Compound 2f, (3-(Dimethylamino)phenyl)(3,4,5-trimethoxyphenyl)methanone oxime] | 153 (≈ 463 µM) | > 1000 | > 20000 | > 1000 | – | – | – | – | – | –
6 | COc1cc(C(=NO)c2ccc([N+](C)(C)C)cc2)cc(OC)c1OC.[I-] [Compound 6a, 4-((Hydroxyimino)(3,4,5-trimethoxyphenyl)methyl)-N,N,N-trimethylbenzenaminium iodide] | – | > 1000 | > 20000 | > 1000 | – | – | – | 1500 | – | –
7 | C=C(c1cccc(N(C)C)c1)c1cc(OC)c(OC)c(OC)c1 [Compound 3f, N,N-Dimethyl-3-(1-(3,4,5-trimethoxyphenyl)vinyl)aniline] | – | > 1000 | > 20000 | > 1000 | – | – | > 1000 | 21 (≈ 67 µM) | – | –

The next lines start with results.

Row | solubility at 48 h [1, 7] [µg/mL] | IC50 [2] [nM] | IC50 [3] [nM] | IC50 [4] [nM] | IC50 [6] [nM] | improvement of HT-29 IC50 after verapamil treatment ([6]; 10 µM verapamil) [fold] | SMILES | IC50 [5, 8] [nM] | solubility at 48 h ([1]; aqueous buffer) [µg/mL] | IC50 [5] [nM] | IC50 ([5]; range over the cell lines, Table S1, heading: Cytotoxicity range) [nM]
8 | 679 | > 1000 | > 20000 | > 1000 | – | – | COc1cc(C=Cc2ccc([N+](C)(C)C)nc2)cc(OC)c1OC.[I-] [Compound 9b, N,N,N-trimethyl-5-(3,4,5-trimethoxystyryl)pyridin-2-aminium iodide] | – | – | – | –
9 | > 5000 | > 1000 | > 20000 | > 1000 | – | – | COc1ccc(OC)c(C(=O)c2ccc([N+](C)(C)C)cc2)c1.[I-] [Compound 5e, 4-(2,5-Dimethoxybenzoyl)-N,N,N-trimethylbenzenaminium iodide] | > 1000 | – | – | –
10 | 4400 | > 1000 | > 20000 | > 1000 | – | – | COc1ccc(C(=O)c2ccc([N+](C)(C)C)cc2)c(OC)c1OC.[I-] [Compound 5d, N,N,N-Trimethyl-4-(2,3,4-trimethoxybenzoyl)benzenaminium iodide] | > 1000 | – | – | –
11 | 1000 | > 1000 | > 20000 | > 1000 | – | – | C=C(c1ccc([N+](C)(C)C)cc1)c1ccc(OC)c(OC)c1OC.[I-] [Compound 7d, N,N,N-Trimethyl-4-(1-(2,3,4-trimethoxyphenyl)vinyl)benzenaminium iodide] | – | – | – | > 1000
12 | 10.5 (≈ 33.2 µM) | > 1000 | > 20000 | > 1000 | – | – | COc1cc(C(=O)c2ccc(N(C)C)nc2)cc(OC)c1OC [Compound 1b, (6-(Dimethylamino)pyridin-3-yl)(3,4,5-trimethoxyphenyl)methanone] | > 1000 | – | – | –
13 | – | 373 | > 20000 | 277 | 320 | – | COc1ccc(C(=NO)c2ccc(N(C)C)cc2)c(OC)c1OC [Compound 2d, (4-(Dimethylamino)phenyl)(2,3,4-trimethoxyphenyl)methanone oxime] | – | – | – | –
